Experimental data taken from patent publication US9585988B2, “Anchorage devices comprising an active pharmaceutical ingredient” (TYRX, Inc., priority 2010, dated 2017).

Key:
[1] = Pocket concentration of antibiotic after implantation; assay type: in vivo; details: other: implantation
[2] = Tissue concentration of antibiotic after implantation; assay type: in vivo; details: other: implantation
[3] = Post implant serum concentration of antibiotic; assay type: in vivo; details: other: implantation
myofibroblast formation = details: Ajmal et al. (2003); cited from earlier work
[4] = after about 2 hours, range worded for embodiments, see Table 8
[5] = after about 6 hours, range worded for embodiments, see Table 8
[6] = 2 h, Left, read-out: Average Tissue concentration
[7] = 2 h, Right, read-out: Average Tissue concentration
[8] = 6 h, Left, read-out: Average Tissue concentration
[9] = 6 h, Right, read-out: Average Tissue concentration
[10] = 24 h, Left, read-out: Average Tissue concentration
[11] = 24 h, Right, read-out: Average Tissue concentration
[12] = after about 2 hours, range worded for embodiments, see Table 7, read-out: tissue concentration
[13] = after about 6 hours, range worded for embodiments, see Table 7, read-out: tissue concentration
[14] = after about 24 hours, range worded for embodiments, see Table 7, read-out: tissue concentration
[15] = after about 2 hours, range worded for embodiments, see Table 9
[16] = after about 6 hours, range worded for embodiments, see Table 9
[17] = after about 24 hours, range worded for embodiments, see Table 9

concentration at 2 h ([1]; 2 h, Left) | concentration at 6 h ([1]; 6 h, Left) | concentration at 6 h ([1]; 6 h, Right) | concentration at 2 h [1, 4] | concentration at 6 h [1, 5] | concentration at 2 h [2, 6] | concentration at 2 h [2, 7] | concentration at 6 h [2, 8] | concentration at 6 h [2, 9] | concentration at 24 h [2, 10] | concentration at 24 h [2, 11] | concentration at 2 h [2, 12] | concentration at 6 h [2, 13] | concentration at 24 h [2, 14] | concentration at 2 h ([3]; 2 h) | concentration at 6 h ([3]; 6 h) | concentration at 24 h ([3]; 24 h) | concentration at 2 h [3, 15] | concentration at 6 h [3, 16] | concentration at 24 h [3, 17] | SMILES | also measured
2020 ng/mL | 19600 ng/mL | 100000 ng/mL | 1000 to 20000 ng/mL | 15000 to 110000 ng/mL | 765 ng/mL | 1270 ng/mL | 2080 ng/mL | 2210 ng/mL | 4040 ng/mL | 2720 ng/mL | 600 to 1400 ng/mL | 1900 to 2300 ng/mL | 2600 to 4200 ng/mL | 27.1 ng/mL | 20.8 ng/mL | 44.3 ng/mL | 15 to 45 ng/mL | 10 to 40 ng/mL | 30 to 60 ng/mL | CO[C@H]1/C=C/O[C@@]2(C)Oc3c(C)c(O)c4c(O)c(c(/C=N/N5CCN(C)CC5)c(O)c4c3C2=O)NC(=O)/C(C)=C\C=C\[C@H](C)[C@H](O)[C@@H](C)[C@@H](O)[C@@H](C)[C@H](OC(C)=O)[C@@H]1C [Rifampin] | concentration at 2 h ([1]; 2 h, Right): 16400 ng/mL
16400 ng/mL | 26800 ng/mL | 207000 ng/mL | 15000 to 17000 ng/mL | 25000 to 210000 ng/mL | 700 ng/mL | 783 ng/mL | 2680 ng/mL | 2600 ng/mL | 1330 ng/mL | 1840 ng/mL | 650 to 800 ng/mL | 2550 to 2750 ng/mL | 1200 to 1900 ng/mL | 46.5 ng/mL | 79.1 ng/mL | 69.4 ng/mL | 30 to 60 ng/mL | 60 to 100 ng/mL | 50 to 90 ng/mL | CN(C)c1ccc(O)c2c1C[C@H]1C[C@H]3[C@H](N(C)C)C(O)=C(C(N)=O)C(=O)[C@@]3(O)C(O)=C1C2=O [Minocycline] | 
 |  |  |  |  |  |  |  |  |  |  |  |  |  |  |  |  |  |  |  | O=S(=O)([O-])CCS.[Na+] [MESNA, sodium 2-mercaptoethane sulfonate] | myofibroblast formation (myofibroblast formation): diminish myofibroblast formation
